From ChEMBL document CHEMBL1201862, “PubChem BioAssay data set” (2004)
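How tested: cells in 96-well plates exposed to compound for 48 hours at five concentrations. At the GI50, growth is halved.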 The source made the active and inactive calls. No stated cut-off is given here; in the data, active = GI50 up to about 1.1 µM and inactive = higher.

Experiments:
Assay in all cases: inhibition of tumour cell growth, NCI panel, 48 h
[1] = system: SF-268
[2] = system: DU-145
[3] = system: M14
[4] = system: UACC-257
[5] = system: CAKI-1
[6] = system: SF-295
[7] = system: HL-60
[8] = system: RXF 393
[9] = system: MOLT-4
[10] = system: SK-MEL-2
[11] = system: K562
[12] = system: Hs-578T
[13] = system: NCI-H460
[14] = system: T47D
[15] = system: SK-MEL-5
[16] = system: NCI/ADR-RES
[17] = system: HT-29
[18] = system: HOP-92
[19] = system: NCI-H522
[20] = system: MDA-N
[21] = system: SK-OV-3
[22] = system: OVCAR-4
[23] = system: SN12C
[24] = system: OVCAR-3
[25] = system: OVCAR-8
[26] = system: CCRF-CEM
[27] = system: IGROV-1
[28] = system: HOP-62
[29] = system: Malme-3M
[30] = system: NCI-H23
[31] = system: UO-31
[32] = system: SNB-75
[33] = system: COLO 205
[34] = system: BT-549
[35] = system: MCF7
[36] = system: A549
[37] = system: TK-10
[38] = system: OVCAR-5
[39] = system: SNB-19
[40] = system: LOX IMVI
[41] = system: KM12
[42] = system: A498
[43] = system: HCC 2998
[44] = system: UACC-62
[45] = system: ACHN
[46] = system: U-251
[47] = system: HCT-116
[48] = system: MDA-MB-231
[49] = system: SR
[50] = system: PC-3
[51] = system: 786-0
[52] = system: SK-MEL-28
[53] = system: SF-539
[54] = system: HCT-15
[55] = system: SW-620
[56] = system: EKVX
[57] = system: MDA-MB-435
[58] = system: NCI-H226

SMILES: CC(C)[Si](OC1=CCC[C@H]2NC(=O)[C@@H](Cc3ccccc3)[C@@]12C)(C(C)C)C(C)C
- GI50 [1]: 12.1 µM (inactive)
- GI50 [2]: 10.2 µM (inactive)
- GI50 [3]: 11.2 µM (inactive)
- GI50 [4]: 4.54 µM (inactive)
- GI50 [5]: 3.85 µM (inactive)
- GI50 [6]: 4.85 µM (inactive)
- GI50 [7]: 2.86 µM (inactive)
- GI50 [8]: 4.16 µM (inactive)
- GI50 [9]: 3.89 µM (inactive)
- GI50 [10]: 14.2 µM (inactive)
- GI50 [11]: 3.2 µM (inactive)
- GI50 [12]: 4.67 µM (inactive)
- GI50 [13]: 3.52 µM (inactive)
- GI50 [14]: 2.79 µM (inactive)
- GI50 [15]: 3.37 µM (inactive)
- GI50 [16]: 6.49 µM (inactive)
- GI50 [17]: 3.43 µM (inactive)
- GI50 [18]: 2.32 µM (inactive)
- GI50 [19]: 3.46 µM (inactive)
- GI50 [20]: 3.95 µM (inactive)
- GI50 [21]: 5.93 µM (inactive)
- GI50 [22]: 5.25 µM (inactive)
- GI50 [23]: 3.23 µM (inactive)
- GI50 [24]: 5.79 µM (inactive)
- GI50 [25]: 11.4 µM (inactive)
- GI50 [26]: 2.85 µM (inactive)
- GI50 [27]: 10.9 µM (inactive)
- GI50 [28]: 11.9 µM (inactive)
- GI50 [29]: 12.8 µM (inactive)
- GI50 [30]: 4.98 µM (inactive)
- GI50 [31]: 10.1 µM (inactive)
- GI50 [32]: 15.4 µM (inactive)
- GI50 [33]: 2.33 µM (inactive)
- GI50 [34]: 10.8 µM (inactive)
- GI50 [35]: 3.55 µM (inactive)
- GI50 [36]: 2.98 µM (inactive)
- GI50 [37]: 9.98 µM (inactive)
- GI50 [38]: 9.44 µM (inactive)
- GI50 [39]: 10 µM (inactive)
- GI50 [40]: 3.03 µM (inactive)
- GI50 [41]: 3.84 µM (inactive)
- GI50 [42]: 5.79 µM (inactive)
- GI50 [43]: 2.18 µM (inactive)
- GI50 [44]: 8.95 µM (inactive)
- GI50 [45]: 1.89 µM (inactive)
- GI50 [46]: 3.62 µM (inactive)
- GI50 [47]: 3.6 µM (inactive)
- GI50 [48]: 12.6 µM (inactive)
- GI50 [49]: 2.62 µM (inactive)
- GI50 [50]: 3.37 µM (inactive)
- GI50 [51]: 3.94 µM (inactive)
- GI50 [52]: 4.11 µM (inactive)
- GI50 [53]: 5.74 µM (inactive)
- GI50 [54]: 4.09 µM
- GI50 [55]: 2.72 µM (inactive)
- GI50 [56]: 3.74 µM (inactive)
- GI50 [57]: 4.04 µM (inactive)

SMILES: Cc1c[nH]c(C(=O)O)c1-c1ccc2c(-c3ccccc3)nc3ccccc3n12
- GI50 [1]: 28.2 µM (inactive)
- GI50 [2]: 36.7 µM (inactive)
- GI50 [3]: 31.7 µM (inactive)
- GI50 [4]: 30.8 µM (inactive)
- GI50 [5]: 34.7 µM (inactive)
- GI50 [6]: 22.7 µM (inactive)
- GI50 [8]: 18.2 µM (inactive)
- GI50 [9]: 34.2 µM (inactive)
- GI50 [10]: 20.7 µM (inactive)
- GI50 [11]: 41.5 µM (inactive)
- GI50 [12]: 18.6 µM (inactive)
- GI50 [13]: 22.9 µM (inactive)
- GI50 [14]: 37.2 µM (inactive)
- GI50 [15]: 30.5 µM (inactive)
- GI50 [16]: 17.2 µM (inactive)
- GI50 [17]: 22.8 µM (inactive)
- GI50 [18]: 32.9 µM (inactive)
- GI50 [19]: 20.9 µM (inactive)
- GI50 [20]: 19 µM (inactive)
- GI50 [21]: 32.1 µM (inactive)
- GI50 [22]: 41 µM (inactive)
- GI50 [23]: 30.7 µM (inactive)
- GI50 [24]: 16.4 µM (inactive)
- GI50 [25]: 22.6 µM (inactive)
- GI50 [26]: 36.3 µM (inactive)
- GI50 [27]: 22.9 µM (inactive)
- GI50 [28]: 15.7 µM (inactive)
- GI50 [58]: 20.3 µM (inactive)
- GI50 [30]: 35.4 µM (inactive)
- GI50 [31]: 34.4 µM (inactive)
- GI50 [32]: 17.5 µM (inactive)
- GI50 [33]: 39.4 µM (inactive)
- GI50 [34]: 30.6 µM (inactive)
- GI50 [35]: 34 µM (inactive)
- GI50 [36]: 33.7 µM (inactive)
- GI50 [37]: 29.2 µM (inactive)
- GI50 [38]: 36 µM (inactive)
- GI50 [40]: 27.1 µM (inactive)
- GI50 [41]: 20 µM (inactive)
- GI50 [42]: 13.9 µM (inactive)
- GI50 [43]: 13.7 µM (inactive)
- GI50 [44]: 20.7 µM (inactive)
- GI50 [45]: 52.4 µM (inactive)
- GI50 [46]: 48.3 µM (inactive)
- GI50 [47]: 34.8 µM (inactive)
- GI50 [48]: 32.9 µM (inactive)
- GI50 [49]: 33 µM (inactive)
- GI50 [50]: 27.4 µM (inactive)
- GI50 [51]: 33.3 µM (inactive)
- GI50 [52]: 31.4 µM (inactive)
- GI50 [53]: 19.5 µM (inactive)
- GI50 [54]: 30 µM
- GI50 [55]: 41.2 µM (inactive)
- GI50 [56]: 20.5 µM (inactive)
- GI50 [57]: 23.2 µM (inactive)

SMILES: Cc1ccccc1/N=N/c1c(O)c(S(=O)(=O)O)cc2cc(S(=O)(=O)O)ccc12
- GI50 [1]: > 100 µM (inactive)
- GI50 [2]: > 100 µM (inactive)
- GI50 [3]: > 100 µM (inactive)
- GI50 [4]: > 100 µM (inactive)
- GI50 [5]: > 100 µM (inactive)
- GI50 [6]: > 100 µM (inactive)
- GI50 [7]: > 100 µM (inactive)
- GI50 [8]: > 100 µM (inactive)
- GI50 [9]: > 100 µM (inactive)
- GI50 [10]: > 100 µM (inactive)
- GI50 [11]: > 100 µM (inactive)
- GI50 [12]: > 100 µM (inactive)
- GI50 [13]: > 100 µM (inactive)
- GI50 [14]: > 100 µM (inactive)
- GI50 [15]: > 100 µM (inactive)
- GI50 [16]: > 100 µM (inactive)
- GI50 [17]: > 100 µM (inactive)
- GI50 [18]: > 100 µM (inactive)
- GI50 [19]: > 100 µM (inactive)
- GI50 [20]: > 100 µM (inactive)
- GI50 [21]: > 100 µM (inactive)
- GI50 [22]: > 100 µM (inactive)
- GI50 [23]: > 100 µM (inactive)
- GI50 [24]: > 100 µM (inactive)
- GI50 [25]: > 100 µM (inactive)
- GI50 [26]: > 100 µM (inactive)
- GI50 [27]: > 100 µM (inactive)
- GI50 [28]: > 100 µM (inactive)
- GI50 [58]: > 100 µM (inactive)
- GI50 [29]: > 100 µM (inactive)
- GI50 [30]: > 100 µM (inactive)
- GI50 [31]: > 100 µM (inactive)
- GI50 [32]: 70.1 µM (inactive)
- GI50 [33]: > 100 µM (inactive)
- GI50 [34]: > 100 µM (inactive)
- GI50 [35]: > 100 µM (inactive)
- GI50 [36]: > 100 µM (inactive)
- GI50 [37]: > 100 µM (inactive)
- GI50 [38]: > 100 µM (inactive)
- GI50 [39]: > 100 µM (inactive)
- GI50 [41]: > 100 µM (inactive)
- GI50 [42]: > 100 µM (inactive)
- GI50 [43]: > 100 µM (inactive)
- GI50 [44]: > 100 µM (inactive)
- GI50 [45]: > 100 µM (inactive)
- GI50 [46]: > 100 µM (inactive)
- GI50 [47]: > 100 µM (inactive)
- GI50 [48]: > 100 µM (inactive)
- GI50 [49]: > 100 µM (inactive)
- GI50 [50]: > 100 µM (inactive)
- GI50 [51]: > 100 µM (inactive)
- GI50 [52]: > 100 µM (inactive)
- GI50 [53]: > 100 µM (inactive)
- GI50 [54]: > 100 µM
- GI50 [55]: > 100 µM (inactive)
- GI50 [56]: > 100 µM (inactive)
- GI50 [57]: > 100 µM (inactive)
